Results published in patent US12195755B2, “Placental lipid bilayer for cell-free molecular interaction studies” (priority 2019, dated 2025).

Tests used:
[1] = tested on: keratinocytes; conditions: cited from earlier work
[2] = cited from earlier work
[3] = Parallel artificial membrane permeability assay (PAMPA) with suspended lipid bilayers; assay type: in vitro ADME, human; conditions: 0.1 mg/mL amphotericin B
Method: “Parallel artificial membrane permeability assay” (PAMPA) is a method that determines the permeability of substances from a donor compartment, through a lipid-infused artificial membrane into an acceptor compartment. A multi-well microtiter plate is used for the donor, and a membrane/acceptor compartment is placed on top. The whole assembly is referred to in the heterogeneous membrane art as a “sandwich.” Initially, the drug is added to the donor compartment, and the acceptor compartment is drug-free. After an incubation period, which may include stirring, the sandwich is separated, and the drug is measured in each compartment. Techniques including but not limited to absorbance measurements allow calculation of the drug that remains in the membrane.
Using a parallel artificial permeability assay (PAMPA) with suspended lipid bilayers, polyvinylidene difluoride (PVDF) 96-well multiscreen filter plates ([…]) and transport receiver plates (Millipore-Sigma, Burlington, MA, USA), the inventors investigate DEHP, amphotericin B, and amBisome® diffusion from a donor compartment, through the porous membrane treated with lipid, to an acceptor compartment. The maximum absorbance for DEHP, amphotericin B, and amBisome® was measured using a plate reader and determined to be 280 nm, 340 nm, and 320 nm, respectively. […]

For CNC(=O)Oc1cccc2c1OC(C)(C)C2 [Carbofuran, carbofuran], the toxicity against keratinocytes [1] is listed as “toxic”.
For CCCCC(CC)COC(=O)c1ccccc1C(=O)OCC(CC)CCCC (centres unmarked) [DEHP, di(2-ethylhexyl) phthalate], the risk for miscarriage ([2]; higher concentrations of phthalates) is listed as “increases the risk for miscarriage” and the “more likely to lose a pregnancy compared to women with lower levels” value ([2]; women exposed to high concentrations) is listed as 60%.
With C[C@@H]1[C@H](O)[C@@H](C)/C=C/C=C/C=C/C=C/C=C/C=C/C=C/[C@H](O[C@@H]2O[C@H](C)[C@@H](O)[C@H](N)[C@@H]2O)C[C@@H]2O[C@](O)(C[C@@H](O)C[C@@H](O)[C@H](O)CC[C@@H](O)C[C@@H](O)CC(=O)O[C@H]1C)C[C@H](O)[C@H]2C(=O)O [amphotericin B] the “interaction with suspended trophoblast bilayers compared to amBisome®” value [3] was “interacts less” and the “interaction with suspended trophoblast bilayers compared to amBisome®” value ([3]; listed as Amphotericin B) was “interacted more”.
